Results on 13 molecules are retold here after patent publication US8846739B2, “TGR5 agonists” (Exelixis Patent Company LLC, priority 2009, dated 2014).

One assay has as its target T1, human TGR5 (h-TGR5) (Homo sapiens, UniProt Q8TDU6).
T1 sequence (Q8TDU6 1-330): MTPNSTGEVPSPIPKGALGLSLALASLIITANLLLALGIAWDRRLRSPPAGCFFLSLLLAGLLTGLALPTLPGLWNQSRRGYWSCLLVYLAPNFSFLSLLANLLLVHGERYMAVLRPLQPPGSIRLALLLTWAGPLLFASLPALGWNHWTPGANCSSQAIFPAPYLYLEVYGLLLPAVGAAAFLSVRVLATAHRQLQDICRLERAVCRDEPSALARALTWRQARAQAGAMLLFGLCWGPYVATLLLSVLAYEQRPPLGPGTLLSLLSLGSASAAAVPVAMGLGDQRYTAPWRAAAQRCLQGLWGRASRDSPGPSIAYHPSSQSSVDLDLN
Nature of the assay: TGR5/CRE-Luciferase Assay. Type of assay: cell-based. Particulars: HEK 293 hTGR5/CRE-Luc cells, 6 hours incubation, read-out: CRE-Luc Agonist (EC50). The protocol: HEK 293 cells stably expressing human TGR5 (h-TGR5) or mouse TGR5 (m-TGR5) were generated from HEK 293 CRE-Luciferase cells. The day before the assay, HEK 293 hTGR5/CRE-Luc cells were plated in DMEM in a 384 well assay plate at a density of 25 k cells/45 μL per well and grown for 18-20 hours. Compounds were serially diluted in DMEM containing 5% DMSO and 5 µL of compound or media alone was transferred to each well and plates were incubated for 6 hours. Following incubation, 30 μL of lysis/luciferase buffer was added to each well. The luciferase activity was then measured on the EnVision™ plate reader and the dose response data was analyzed using ActivityBase.
(§1) In the following tables, ECso values determined according to the TGR5 cAMP Assay are noted (cAMP); EC50 values determined according to the TGR5/CRE-Luciferiase Assay are noted (CRE-Luc).

A further assay addresses T2, h-TGR5 (Homo sapiens, UniProt Q8TDU6).
T2 sequence (Q8TDU6 1-330): T1 sequence (Q8TDU6 1-330)
Nature of the assay: TGR5 cAMP Assay using Cisbio cAMP Dynamic 2 htrf assay kit. Type of assay: cell-based. Particulars: hTGR5CRE-luc HEK 293 cells. On the procedure:
Compounds were diluted in DPBS with 5% DMSO (8-point serial dilution by half logs) in a 96-well plate and 1 μL was transferred to a 384-well assay plate in quadruplicate. The d2-cAMP and anti-cAMP Ab-cryptate stock solution were prepared as per the instructions in the Cisbio™ (Bedford, Mass.) kit. Cells (hTGR5CRE-luc HEK 293 and mTGR5CRE-luc HEK 293) were harvested using cell dissociation buffer and resuspended in DPBS. Cells were adjusted to 0.44×10^6 cells/ml followed by addition of IBMX to a final concentration of 0.5 mM. The cells were then mixed with d2-cAMP solution (7.1 mL cells+100 ul d2-cAMP) and 4000 cells (9 μL) were transferred to each well of the 384-well assay plate. Cells without d2-cAMP were added to eight wells as a negative control. The plate was covered and incubated at room temp for 30 min. Then 10 μL of Ab-cryptate solution was added to each well of the assay plate and incubated for 1 hr. The plate was read on an EnVision™ plate reader (Perkin-Elmer, Waltham, Mass.) and the DeltaF value was calculated as per the instructions in the Cisbio™ kit.
as §1

pEC50: −log10 of the molar value. Where only a bound is given, the exact number is not on record here.

Broadly, the pEC50 is −log10 of the EC50, conventionally taken in molar units. On to `COc1cc(C(C)(C)c2cnc(SCc3c(F)cc(S(=O)(=O)N(CCO)CCC[N+](C)(C)C)cc3F)n2-c2ccc(F)cc2)ccc1Cl` [Compound 12f, 3-(4-((5-(2-(4-Chloro-3-methoxyphenyl)propan-2-yl)-1-(4-fluorophenyl)-1H-imidazol-2-ylthio)methyl)-3,5-difluoro-N-(2-hydroxyethyl)phenylsulfonamido)-N,N,N-trimethylpropan-1-aminium 2,2,2-trifluoroacetate], for which the pEC50 at human TGR5 (h-TGR5) and on h-TGR5 was over 7.00 in each case.
As for `COc1cc(C(C)(C)c2cnc(SCc3c(F)cc(S(=O)(=O)N(CCCO)CCC[N+](C)(C)C)cc3F)n2-c2ccc(F)cc2)ccc1Cl` [Compound 12g, 3-(4-((5-(2-(4-chloro-3-methoxyphenyl)propan-2-yl)-1-(4-fluorophenyl)-1H-imidazol-2-ylthio)methyl)-3,5-difluoro-N-(3-hydroxypropyl)phenylsulfonamido)-N,N,N-trimethylpropan-1-aminium 2,2,2-trifluoroacetate], the pEC50 at human TGR5 (h-TGR5) and on h-TGR5 was over 7.00 throughout.
`COc1cc(C(C)(C)c2cnc(SCc3c(F)cc(S(=O)(=O)N(CCC[N+](C)(C)C)CC(N)=O)cc3F)n2-c2ccc(F)cc2)ccc1Cl` [Compound 12h, 3-(N-(2-amino-2-oxoethyl)-4-((5-(2-(4-chloro-3-methoxyphenyl)propan-2-yl)-1-(4-fluorophenyl)-1H-imidazol-2-ylthio)methyl)-3,5-difluorophenylsulfonamido)-N,N,N-trimethylpropan-1-aminium 2,2,2-trifluoroacetate]: the pEC50 at human TGR5 (h-TGR5) and on h-TGR5 was over 7.00 in each case.
As for `CC(C)(c1ccc(Cl)c(O)c1)c1cnc(SCc2c(F)cc(S(=O)(=O)NCCC[N+](C)(C)C)cc2F)n1-c1ccc(F)cc1` [Compound 13a, 3-(4-((5-(2-(4-chloro-3-hydroxyphenyl)propan-2-yl)-1-(4-fluorophenyl)-1H-imidazol-2-ylthio)methyl)-3,5-difluorophenylsulfonamido)-N,N,N-trimethylpropan-1-aminium 2,2,2-trifluoroacetate], the pEC50 at human TGR5 (h-TGR5) and on h-TGR5 was 6.00 to 7.00 in each case.
In the case of `COC(=O)[C@@H](C)N(CCC[N+](C)(C)C)S(=O)(=O)c1cc(F)c(CSc2ncc(C(C)(C)c3ccc(Cl)c(OC)c3)n2-c2ccc(F)cc2)c(F)c1` [Compound 14, (R)-3-(4-((5-(2-(4-chloro-3-methoxyphenyl)propan-2-yl)-1-(4-fluorophenyl)-1H-imidazol-2-ylthio)methyl)-3,5-difluoro-N-(1-methoxy-1-oxopropan-2-yl)phenylsulfonamido)-N,N,N-trimethylpropan-1-aminium 2,2,2-trifluoroacetate], the pEC50 on human TGR5 (h-TGR5) and on h-TGR5 was over 7.00 each time.
Consider `COc1cc(C(C)(C)c2cnc(SCc3c(F)cc(S(=O)(=O)N(CCC[N+](C)(C)C)[C@H](C)C(=O)O)cc3F)n2-c2ccc(F)cc2)ccc1Cl` [Compound 14a, (R)-3-(N-(1-carboxyethyl)-4-((5-(2-(4-chloro-3-methoxyphenyl)propan-2-yl)-1-(4-fluorophenyl)-1H-imidazol-2-ylthio)methyl)-3,5-difluorophenylsulfonamido)-N,N,N-trimethylpropan-1-aminium 2,2,2-trifluoroacetate], for which the pEC50 at human TGR5 (h-TGR5) and on h-TGR5 was over 7.00 throughout.
As to `COc1cc(C(C)(C)c2cnc(SCc3c(F)cc(S(=O)(=O)N(CCCC[N+](C)(C)C)[C@H](C)C(=O)O)cc3Cl)n2-c2ccc(F)cc2)ccc1Cl` [Compound 14aa, 4-([(1R)-1-carboxyethyl]{[3-chloro-4-({[5-{1-[4-chloro-3-(methyloxy)phenyl]-1-methylethyl}-1-(4-fluorophenyl)-1H-imidazol-2-yl]thio}methyl)-5-fluorophenyl]sulfonyl}amino)-N,N,N-trimethylbutan-1-aminium], the pEC50 at human TGR5 (h-TGR5) and at h-TGR5 was over 7.00 throughout.
Regarding `CC[C@H](C(=O)O)N(CCC[N+](C)(C)C)S(=O)(=O)c1cc(F)c(CSc2ncc(C(C)(C)c3ccc(Cl)c(OC)c3)n2-c2ccc(F)cc2)c(Cl)c1` [Compound 14ab, 3-([(1R)-1-carboxypropyl]{[3-chloro-4-({[5-{1-[4-chloro-3-(methyloxy)phenyl]-1-methylethyl}-1-(4-fluorophenyl)-1H-imidazol-2-yl]thio}methyl)-5-fluorophenyl]sulfonyl}amino)-N,N,N-trimethylpropan-1-aminium], the pEC50 at human TGR5 (h-TGR5) and at h-TGR5 was over 7.00 throughout.
On to `COc1cc(C(C)(C)c2cnc(SCc3c(F)cc(S(=O)(=O)N(CCC[N+](C)(C)C)[C@H](C(=O)O)[C@@H](C)O)cc3Cl)n2-c2ccc(F)cc2)ccc1Cl` [Compound 14ac, 3-([(1S,2R)-1-carboxy-2-hydroxypropyl]{[3-chloro-4-({[5-{1-[4-chloro-3-(methyloxy)phenyl]-1-methylethyl}-1-(4-fluorophenyl)-1H-imidazol-2-yl]thio}methyl)-5-fluorophenyl]sulfonyl}amino)-N,N,N-trimethylpropan-1-aminium], for which the pEC50 at human TGR5 (h-TGR5) and at h-TGR5 was over 7.00 each time.
Regarding `COc1cc(C(C)(C)c2cnc(SCc3c(F)cc(S(=O)(=O)N(CCCCC[N+](C)(C)C)[C@H](C)C(=O)O)cc3Cl)n2-c2ccc(F)cc2)ccc1Cl` [Compound 14ad, 5-([(1R)-1-carboxyethyl]{[3-chloro-4-({[5-{1-[4-chloro-3-(methyloxy)phenyl]-1-methylethyl}-1-(4-fluorophenyl)-1H-imidazol-2-yl]thio}methyl)-5-fluorophenyl]sulfonyl}amino)-N,N,N-trimethylpentan-1-aminium], the pEC50 at human TGR5 (h-TGR5) and on h-TGR5 was over 7.00 each time.
On to `COc1ccc(CN(CCC[N+](C)(C)C)S(=O)(=O)c2cc(F)c(CSc3ncc(C(C)(C)c4ccc(Cl)c(OC)c4)n3-c3ccc(F)cc3)c(F)c2)cc1` [Compound 14ae, 3-({[4-({[5-{1-[4-chloro-3-(methyloxy)phenyl]-1-methylethyl}-1-(4-fluorophenyl)-1H-imidazol-2-yl]thio}methyl)-3,5-difluorophenyl]sulfonyl}{[4-(methyloxy)phenyl]methyl}amino)-N,N,N-trimethylpropan-1-aminium], for which the pEC50 on human TGR5 (h-TGR5) is over 7.00; on h-TGR5, 6.00 to 7.00.
On the same counts, the results for `COC(=O)C(C)(C)N(CCC[N+](C)(C)C)S(=O)(=O)c1cc(F)c(CSc2ncc(C(C)(C)c3ccc(Cl)c(OC)c3)n2-c2ccc(F)cc2)c(F)c1` [Compound 14af, 3-({[4-({[5-{1-[4-chloro-3-(methyloxy)phenyl]-1-methylethyl}-1-(4-fluorophenyl)-1H-imidazol-2-yl]thio}methyl)-3,5-difluorophenyl]sulfonyl}[1,1-dlmethyl-2-(methyloxy)-2-oxoethyl]amino)-N,N,N-trimethylpropan-1-aminium] are over 7.00 and over 7.00.
With `COc1cc(C(C)(C)c2cnc(SCc3c(F)cc(S(=O)(=O)N(CCC[N+](C)(C)C)[C@@H](CCC(=O)O)C(=O)O)cc3F)n2-c2ccc(F)cc2)ccc1Cl` [Compound 14ag, (S)-3-(4-((5-(2-(4-chloro-3-methoxyphenyl)propan-2-yl)-1-(4-fluorophenyl)-1H-imidazol-2-ylthio)methyl)-N-(1,3-dicarboxypropyl)-3,5-difluorophenylsulfonamido)-N,N,N-trimethylpropan-1-aminium], the values for the pEC50 on human TGR5 (h-TGR5) and on h-TGR5 were over 7.00 and 6.00 to 7.00, respectively.
